Reference: PubChem BioAssay (NCI)
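Where inhibition never reached the appropriate level, the endpoint shown equals the highest concentration tested. Otherwise, values were interpolated linearly from a five-concentration, 48-hour dose response in 96-well plates. Definition used: TGI = concentration required for complete inhibition of growth.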

Experiments:
Test in all cases: NCI anticancer screen, dose series, 48 h
[1] = tested on: EKVX NSCLC
[2] = tested on: 786-0 renal
[3] = tested on: OVCAR-8 ovarian
[4] = tested on: CCRF-CEM leukemia
[5] = tested on: SK-MEL-28 melanoma
[6] = tested on: SNB-75 CNS
[7] = tested on: KM12 colon
[8] = tested on: SR leukemia
[9] = tested on: IGROV1 ovarian
[10] = tested on: SN12C renal
[11] = tested on: SNB-19 CNS
[12] = tested on: SK-MEL-5 melanoma
[13] = tested on: HCC-2998 colon
[14] = tested on: KM20L2 colon
[15] = tested on: SF-539 CNS
[16] = tested on: NCI-H23 lung
[17] = tested on: OVCAR-5 ovarian
[18] = tested on: HOP-18 NSCLC
[19] = tested on: OVCAR-4 ovarian
[20] = tested on: U251 CNS
[21] = tested on: SK-OV-3 ovarian
[22] = tested on: ACHN renal
[23] = tested on: RPMI-8226 leukemia
[24] = tested on: LXFL 529 NSCLC
[25] = tested on: XF 498 CNS
[26] = tested on: MOLT-4 leukemia
[27] = tested on: M14 melanoma
[28] = tested on: MALME-3M melanoma
[29] = tested on: SF-295 CNS
[30] = tested on: HCT-116 colon
[31] = tested on: HCT-15 colon
[32] = tested on: DMS 273 small cell lung
[33] = tested on: SF-268 CNS
[34] = tested on: UACC-62 melanoma
[35] = tested on: SW-620 colon
[36] = tested on: A549 NSCLC
[37] = tested on: UO-31 renal
[38] = tested on: DMS 114 small cell lung
[39] = tested on: UACC-257 melanoma
[40] = tested on: A498 renal
[41] = tested on: HL-60(TB) leukemia
[42] = tested on: RXF 393 renal
[43] = tested on: SNB-78 CNS
[44] = tested on: COLO 205 colon
[45] = tested on: SK-MEL-2 melanoma
[46] = tested on: NCI-H460 lung
[47] = tested on: DLD-1 colon
[48] = tested on: TK-10 renal
[49] = tested on: HOP-92 NSCLC
[50] = tested on: HT29 colon
[51] = tested on: CAKI-1 renal
[52] = tested on: NCI-H522 lung
[53] = tested on: NCI-H226 lung
[54] = tested on: M19-MEL melanoma
[55] = tested on: HOP-62 NSCLC
[56] = tested on: K-562 leukemia
[57] = tested on: OVCAR-3 ovarian
[58] = tested on: LOX IMVI melanoma

## COC(=O)C1=C(C)C(=O)[C@H]2C(C(=O)OC)CCCC[C@@H]12 (some centres undefined)
[1]
  TGI: > 100 µM
[2]
  TGI: > 100 µM
[3]
  TGI: > 100 µM
[4]
  TGI: > 100 µM
[5]
  TGI: > 100 µM
[6]
  TGI: > 100 µM
[7]
  TGI: > 100 µM
[8]
  TGI: > 100 µM
[9]
  TGI: > 100 µM
[10]
  TGI: > 100 µM
[11]
  TGI: > 100 µM
[12]
  TGI: > 100 µM
[13]
  TGI: > 100 µM
[14]
  TGI: > 100 µM
[15]
  TGI: > 100 µM
[16]
  TGI: > 100 µM
[17]
  TGI: > 100 µM
[18]
  TGI: > 100 µM
[19]
  TGI: > 100 µM
[20]
  TGI: > 100 µM
[21]
  TGI: > 100 µM
[22]
  TGI: > 100 µM
[23]
  TGI: > 100 µM
[24]
  TGI: > 100 µM
[25]
  TGI: > 100 µM
[26]
  TGI: > 100 µM
[27]
  TGI: > 100 µM
[28]
  TGI: > 100 µM
[29]
  TGI: > 100 µM
[30]
  TGI: > 100 µM
[31]
  TGI: > 100 µM
[32]
  TGI: > 100 µM
[33]
  TGI: > 100 µM
[34]
  TGI: > 100 µM
[35]
  TGI: > 100 µM
[36]
  TGI: > 100 µM
[37]
  TGI: > 100 µM
[38]
  TGI: 99 µM
[39]
  TGI: > 100 µM
[40]
  TGI: > 100 µM
[41]
  TGI: > 100 µM
[42]
  TGI: > 100 µM
[43]
  TGI: > 100 µM
[44]
  TGI: > 100 µM
[45]
  TGI: > 100 µM
[46]
  TGI: > 100 µM
[47]
  TGI: > 100 µM
[48]
  TGI: > 100 µM
[49]
  TGI: > 100 µM
[50]
  TGI: > 100 µM
[51]
  TGI: > 100 µM
[52]
  TGI: > 100 µM
[53]
  TGI: > 100 µM
[54]
  TGI: > 100 µM
[55]
  TGI: > 100 µM
[56]
  TGI: > 100 µM

## O=C1C(=Cc2cccs2)C(=O)N(CCc2ccccc2)S(=O)(=O)N1CCc1ccccc1
[1]
  TGI: > 50 µM
[2]
  TGI: > 50 µM
[3]
  TGI: > 50 µM
[4]
  TGI: > 50 µM
[5]
  TGI: > 50 µM
[6]
  TGI: > 50 µM
[7]
  TGI: > 50 µM
[8]
  TGI: > 50 µM
[9]
  TGI: 16.5 µM
[10]
  TGI: > 50 µM
[11]
  TGI: > 50 µM
[12]
  TGI: > 50 µM
[13]
  TGI: > 50 µM
[14]
  TGI: > 50 µM
[15]
  TGI: > 50 µM
[16]
  TGI: > 50 µM
[17]
  TGI: > 50 µM
[18]
  TGI: > 50 µM
[19]
  TGI: > 50 µM
[20]
  TGI: 35.2 µM
[21]
  TGI: > 50 µM
[22]
  TGI: > 50 µM
[23]
  TGI: > 50 µM
[24]
  TGI: > 50 µM
[25]
  TGI: > 50 µM
[26]
  TGI: > 50 µM
[27]
  TGI: > 50 µM
[28]
  TGI: > 50 µM
[29]
  TGI: > 50 µM
[57]
  TGI: > 50 µM
[30]
  TGI: 30.4 µM
[31]
  TGI: > 50 µM
[32]
  TGI: > 50 µM
[33]
  TGI: > 50 µM
[34]
  TGI: > 50 µM
[35]
  TGI: > 50 µM
[36]
  TGI: > 50 µM
[37]
  TGI: > 50 µM
[38]
  TGI: 22.2 µM
[39]
  TGI: > 50 µM
[41]
  TGI: 38.4 µM
[42]
  TGI: > 50 µM
[43]
  TGI: > 50 µM
[44]
  TGI: > 50 µM
[45]
  TGI: > 50 µM
[46]
  TGI: > 50 µM
[47]
  TGI: > 50 µM
[48]
  TGI: > 50 µM
[49]
  TGI: > 50 µM
[58]
  TGI: > 50 µM
[50]
  TGI: > 50 µM
[52]
  TGI: > 50 µM
[53]
  TGI: > 50 µM
[54]
  TGI: > 50 µM
[56]
  TGI: > 50 µM

## O=C(/C=C/c1ccc(Br)cc1)c1ccc(NCc2nc3ccccc3[nH]2)cc1
[1]
  TGI: > 100 µM
[2]
  TGI: > 56.2 µM
[3]
  TGI: > 52.6 µM
[4]
  TGI: > 40.1 µM
[5]
  TGI: > 100 µM
[6]
  TGI: 20.6 µM
[7]
  TGI: > 100 µM
[8]
  TGI: 84.6 µM
[9]
  TGI: > 76.3 µM
[10]
  TGI: 66.5 µM
[11]
  TGI: > 53.5 µM
[12]
  TGI: > 46.8 µM
[13]
  TGI: 88.5 µM
[14]
  TGI: > 100 µM
[15]
  TGI: 24.3 µM
[16]
  TGI: > 42.5 µM
[17]
  TGI: > 100 µM
[18]
  TGI: > 100 µM
[19]
  TGI: > 62.6 µM
[20]
  TGI: > 36.8 µM
[21]
  TGI: > 69.3 µM
[22]
  TGI: 81.2 µM
[24]
  TGI: > 46.2 µM
[25]
  TGI: 49.3 µM
[26]
  TGI: 39.9 µM
[27]
  TGI: > 100 µM
[28]
  TGI: > 100 µM
[29]
  TGI: > 46.3 µM
[57]
  TGI: > 100 µM
[30]
  TGI: > 49.1 µM
[31]
  TGI: 17.3 µM
[32]
  TGI: > 54.6 µM
[33]
  TGI: 33 µM
[34]
  TGI: > 76.2 µM
[35]
  TGI: 21.2 µM
[36]
  TGI: > 54.7 µM
[37]
  TGI: 31.2 µM
[38]
  TGI: > 37.5 µM
[39]
  TGI: > 63.4 µM
[40]
  TGI: > 87.1 µM
[41]
  TGI: > 22.9 µM
[42]
  TGI: 24.4 µM
[43]
  TGI: 16.6 µM
[44]
  TGI: 13 µM
[45]
  TGI: > 82.1 µM
[46]
  TGI: > 42.2 µM
[47]
  TGI: > 67.4 µM
[48]
  TGI: > 55.3 µM
[49]
  TGI: 28.3 µM
[58]
  TGI: 6.91 µM
[50]
  TGI: 27.4 µM
[51]
  TGI: > 57.4 µM
[52]
  TGI: 19.4 µM
[53]
  TGI: 54.3 µM
[54]
  TGI: > 100 µM
[55]
  TGI: > 61.2 µM
[56]
  TGI: > 37.3 µM

## C[Si](C)(c1ccccc1)C1CC(=O)CC(=O)C1
[1]
  TGI: > 100 µM
[2]
  TGI: 49.9 µM
[3]
  TGI: > 100 µM
[4]
  TGI: > 100 µM
[5]
  TGI: > 100 µM
[6]
  TGI: > 100 µM
[7]
  TGI: > 100 µM
[8]
  TGI: > 100 µM
[9]
  TGI: 48.3 µM
[10]
  TGI: > 100 µM
[11]
  TGI: > 100 µM
[12]
  TGI: > 100 µM
[13]
  TGI: > 100 µM
[14]
  TGI: > 100 µM
[15]
  TGI: 34.4 µM
[16]
  TGI: > 100 µM
[17]
  TGI: > 100 µM
[18]
  TGI: > 100 µM
[19]
  TGI: > 100 µM
[20]
  TGI: > 100 µM
[21]
  TGI: > 100 µM
[22]
  TGI: > 100 µM
[23]
  TGI: > 100 µM
[24]
  TGI: > 100 µM
[25]
  TGI: > 100 µM
[26]
  TGI: > 100 µM
[27]
  TGI: > 100 µM
[28]
  TGI: > 100 µM
[29]
  TGI: > 100 µM
[57]
  TGI: > 100 µM
[30]
  TGI: > 100 µM
[31]
  TGI: > 100 µM
[32]
  TGI: > 100 µM
[33]
  TGI: > 100 µM
[34]
  TGI: > 100 µM
[35]
  TGI: > 100 µM
[36]
  TGI: > 100 µM
[37]
  TGI: 37.6 µM
[38]
  TGI: > 100 µM
[39]
  TGI: > 100 µM
[41]
  TGI: 43.3 µM
[42]
  TGI: > 100 µM
[43]
  TGI: > 100 µM
[44]
  TGI: > 100 µM
[45]
  TGI: > 100 µM
[46]
  TGI: > 100 µM
[47]
  TGI: > 100 µM
[48]
  TGI: > 100 µM
[58]
  TGI: 42.5 µM
[50]
  TGI: > 100 µM
[51]
  TGI: > 100 µM
[52]
  TGI: 60.8 µM
[53]
  TGI: > 100 µM
[54]
  TGI: > 100 µM
[55]
  TGI: > 100 µM
[56]
  TGI: > 100 µM
